Patent publication US11484539B2, “Compounds and their uses for alleviating menopause-associated symptoms” (Estetra SPRL, priority 2018, dated 2022)

Tested on: post-menopausal women
Experiment: Weekly frequency of moderate to severe VMS, dose-finding study
Type: in vivo
Details: for Difference with placebo, LS adjusted mean, absolute change in weekly frequency of moderate to severe VMS / Difference with placebo, LS adjusted mean, relative change in weekly frequency of moderate to severe VMS: 5 mg E4 vs placebo; for LS adjusted mean change from baseline in weekly frequency of moderate to severe VMS / LS adjusted mean relative change (%) from baseline in weekly frequency of moderate to severe VMS: 10 mg E4
Text: To determine the Minimum Effective Dose (MED), firstly the selection criteria required that patients presented at least 7 moderate to severe VMS/day or at least 50 moderate to severe VMS/week in the week preceding randomization. Secondly, a placebo group was included in a double-blind fashion. Thirdly, the total patient number was such that statistical significance could be obtained between separate arms of the study. Fourthly, the absolute change from baseline in weekly frequency of moderate to severe VMS was taken into account. An analysis of covariance (ANCOVA) was performed based on the untransformed change in weekly frequency of moderate to severe VMS from baseline. Finally, the change in severity from baseline was evaluated. For this, the Severity Scoring System of VMS was documented by the subjects as follows: • a score of Mild (1) for a sensation of heat without sweating; • a score of Moderate (2) for a sensation of heat with sweating/the subject is able to continue activity; and • a score of Severe (3) for a sensation of heat with sweating/which causes cessation of activity.
Enrolment was approximately 18 months. Individual subject participation was up to 27 weeks: up to 6 weeks pre-screening and washout, up to 4 weeks screening and run-in period, up to 91 days (13 weeks) of E4/placebo treatment followed by 2 weeks (14 days) of progestin therapy and a Follow up visit 1 week after completion of progestin therapy in non-hysterectomised subjects only.
To define the minimum effective dose (MED) of the oral dose of E4 by evaluating changes in frequency and in severity of moderate to severe vasomotor symptoms (VMS).
This was a prospective, multicentre, randomised, placebo-controlled, double-blinded, dose-finding study.
Eligible subjects were hysterectomised and non-hysterectomised post-menopausal women aged 40 to 65 years, inclusive, presenting at least 7 moderate to severe hot flushes/day or at least 50 moderate to severe hot flushes/week.
The subjects have met all of the following inclusion criteria at the randomization visit. These criteria were assessed during the screening period: • 1. Women aged 40 to 65 years, inclusive, presenting at least 7 moderate to severe hot flushes/day or at least 50 moderate to severe hot flushes/week in the week preceding randomization. • 2. Body Mass Index (BMI) between 18.0 and 35.0 kg/m^2, inclusive. • 3. Post-menopausal status defined as levels of follicle stimulating hormone (FSH) >40 IU/L and: • amenorrhoea for at least 12 consecutive months or, • amenorrhoea for at least 6 months with estradiol (E2)<20 pg/mL or, • at least 6 weeks post-surgical bilateral oophorectomy with or without hysterectomy with a copy of the pathology report or a statement on letterhead from the subject's physician documenting both ovaries were removed is required. • 4. For non-hysterectomised women: intact uterus with bi-layer endometrial thickness […] on TVUS. • 5. Negative pregnancy test. • 6. Good physical and mental health, in the judgement of the Principal Investigator (PI), on the basis of medical, surgical and gynaecological history, physical examination, gynaecological examination, clinical laboratory, and vital signs. • 7. Subject has provided signed and dated written informed consent before admission to the study. • 8. Subject is able to understand and comply with the protocol requirements, instructions, and protocol-stated restrictions. Exclusion Criteria:
All treatments (Estetrol, hereinafter, E4, [2.5 mg, 5 mg, 10 mg, 15 mg] capsule) were administered once daily (QD) per os for at least 12 consecutive weeks until the last biological assessments (Day 91 maximum) had been performed.
In order to analyse the data recorded in this study, treatment groups have been compared using an ANCOVA (analysis of covariance) with respect to the change in weekly frequency of moderate to severe VMS from baseline to weeks 4 and 12. […]

[1] = week 4, ANCOVA with study centre
[2] = week 12, ANCOVA with study centre

SMILES: C[C@]12CC[C@@H]3c4ccc(O)cc4CC[C@H]3[C@@H]1[C@@H](O)[C@@H](O)[C@@H]2O [E4, 1,3,5 (10)-estratrien-3,15alpha,16alpha,17beta-tetrol]
- Relative change (% from baseline) in weekly frequency of moderate to severe VMS, mean (5 mg E4 QD per os, week 2): −33%
- Mean change from baseline in weekly frequency of moderate to severe VMS (5 mg E4 QD per os, week 3): −24.38
- Relative change (% from baseline) in weekly frequency of moderate to severe VMS, mean (5 mg E4 QD per os, week 3): −38%
- Mean change from baseline in weekly frequency of moderate to severe VMS (5 mg E4 QD per os, week 4): −27.57
- Relative change (% from baseline) in weekly frequency of moderate to severe VMS, mean (5 mg E4 QD per os, week 4): −43%
- Mean change from baseline in weekly frequency of moderate to severe VMS (5 mg E4 QD per os, week 5): −30.70
- Relative change (% from baseline) in weekly frequency of moderate to severe VMS, mean (5 mg E4 QD per os, week 5): −47%
- Mean change from baseline in weekly frequency of moderate to severe VMS (5 mg E4 QD per os, week 6): −38.02
- Relative change (% from baseline) in weekly frequency of moderate to severe VMS, mean (5 mg E4 QD per os, week 6): −57%
- Mean change from baseline in weekly frequency of moderate to severe VMS (5 mg E4 QD per os, week 7): −38.23
- Relative change (% from baseline) in weekly frequency of moderate to severe VMS, mean (5 mg E4 QD per os, week 7): −57%
- Mean change from baseline in weekly frequency of moderate to severe VMS (5 mg E4 QD per os, week 8): −38.55
- Relative change (% from baseline) in weekly frequency of moderate to severe VMS, mean (5 mg E4 QD per os, week 8): −57%
- Mean change from baseline in weekly frequency of moderate to severe VMS (5 mg E4 QD per os, week 9): −39.34
- Relative change (% from baseline) in weekly frequency of moderate to severe VMS, mean (5 mg E4 QD per os, week 9): −59%
- Mean change from baseline in weekly frequency of moderate to severe VMS (5 mg E4 QD per os, week 10): −39.83
- Relative change (% from baseline) in weekly frequency of moderate to severe VMS, mean (5 mg E4 QD per os, week 10): −60%
- Mean change from baseline in weekly frequency of moderate to severe VMS (5 mg E4 QD per os, week 11): −41.46
- Relative change (% from baseline) in weekly frequency of moderate to severe VMS, mean (5 mg E4 QD per os, week 11): −63%
- Mean change from baseline in weekly frequency of moderate to severe VMS (5 mg E4 QD per os, week 12): −40.60
- Relative change (% from baseline) in weekly frequency of moderate to severe VMS, mean (5 mg E4 QD per os, week 12): −62%
- Difference with placebo, LS adjusted mean, absolute change in weekly frequency of moderate to severe VMS [1]: 6.359
- Difference with placebo, LS adjusted mean, relative change in weekly frequency of moderate to severe VMS [1]: 0.06833
- Difference with placebo, LS adjusted mean, absolute change in weekly frequency of moderate to severe VMS (week 4, without site effect): 5.781
- Difference with placebo, LS adjusted mean, relative change in weekly frequency of moderate to severe VMS (week 4, without site effect): 0.05854
- Difference with placebo, LS adjusted mean, absolute change in weekly frequency of moderate to severe VMS [2]: 3.054
- Difference with placebo, LS adjusted mean, relative change in weekly frequency of moderate to severe VMS [2]: 0.03978
- Difference with placebo, LS adjusted mean, absolute change in weekly frequency of moderate to severe VMS (week 12, without site effect): 2.918
- Difference with placebo, LS adjusted mean, relative change in weekly frequency of moderate to severe VMS (week 12, without site effect): 0.03671
- LS adjusted mean change from baseline in weekly frequency of moderate to severe VMS [1]: −35.37
- LS adjusted mean relative change (%) from baseline in weekly frequency of moderate to severe VMS [1]: -54.5%
- LS adjusted mean change from baseline in weekly frequency of moderate to severe VMS (week 4, without site effect): −35.87
- LS adjusted mean relative change (%) from baseline in weekly frequency of moderate to severe VMS (week 4, without site effect): -55.5%
- LS adjusted mean change from baseline in weekly frequency of moderate to severe VMS [2]: −45.84
- LS adjusted mean relative change (%) from baseline in weekly frequency of moderate to severe VMS [2]: -70%
- LS adjusted mean change from baseline in weekly frequency of moderate to severe VMS (week 12, without site effect): −46.53
- LS adjusted mean relative change (%) from baseline in weekly frequency of moderate to severe VMS (week 12, without site effect): -71.7%
- Mean change from baseline in weekly frequency of moderate to severe VMS (10 mg E4 QD per os, week 1): −13.37
- Relative change (% from baseline) in weekly frequency of moderate to severe VMS, mean (10 mg E4 QD per os, week 1): −21%
- Mean change from baseline in weekly frequency of moderate to severe VMS (10 mg E4 QD per os, week 2): −23.47
- Relative change (% from baseline) in weekly frequency of moderate to severe VMS, mean (10 mg E4 QD per os, week 2): −37%
- Mean change from baseline in weekly frequency of moderate to severe VMS (10 mg E4 QD per os, week 3): −31.34
- Relative change (% from baseline) in weekly frequency of moderate to severe VMS, mean (10 mg E4 QD per os, week 3): −48%
- Mean change from baseline in weekly frequency of moderate to severe VMS (10 mg E4 QD per os, week 4): −36.38
- Relative change (% from baseline) in weekly frequency of moderate to severe VMS, mean (10 mg E4 QD per os, week 4): −55%
- Mean change from baseline in weekly frequency of moderate to severe VMS (10 mg E4 QD per os, week 5): −39.07
- Relative change (% from baseline) in weekly frequency of moderate to severe VMS, mean (10 mg E4 QD per os, week 5): −60%
- Mean change from baseline in weekly frequency of moderate to severe VMS (10 mg E4 QD per os, week 6): −42.56
- Relative change (% from baseline) in weekly frequency of moderate to severe VMS, mean (10 mg E4 QD per os, week 6): −65%
- Mean change from baseline in weekly frequency of moderate to severe VMS (10 mg E4 QD per os, week 7): −43.30
- Relative change (% from baseline) in weekly frequency of moderate to severe VMS, mean (10 mg E4 QD per os, week 7): −66%
